In PMC5435364 (PLoS Pathogens, 2017):

Test system: Qa-1
Assay: Qa-1/peptide binding assay (flow cytometry-based competition with biotinylated Qdm)
Parameters: species or system mouse
Conditions: Qa-1 transfected HeLa cells, 0.5 μM biotinylated Qdm + 5 or 10 μM unlabeled competing peptide, 1.5 hours at 4°C, Fig 2A

OT-I: negative control OT-I peptide
Competition with bio-Qdm for binding to Qa-1 (decrease in streptavidin-APC staining): unable to do so
